pIC50: −log10 of the molar value.
Experiments:
Leishmania amazonensis [1] = assay: Leishmanicidal activity against promastigote form of Leishmania amazonensis assessed as inhibition of parasite growth after 72 hrs by Neubauer's chamber method; type: functional, organism-based
[2] = (§1) Cytotoxicity against human PBMC assessed as cell viability after 48 hrs by MTT reduction assay; type: cell-based; details: PBMC (peripheral blood mononuclear cells)
[3] = Selectivity ratio of CC50 for human PBMC to IC50 for promastigote form of Leishmania amazonensis
PBMC = assay: as §1; type: cell-based; details: pbmc, 48 h
Leishmania amazonensis [4] = assay: Leishmanicidal activity against promastigote form of Leishmania amazonensis […] assessed as inhibition of parasite growth after 48 hrs by Neubauer's chamber method; type: functional, organism-based

Row | SMILES | pIC50 (Leishmania amazonensis [1]) | CC50 at 48 h [2] [µM] | Ratio CC50/IC50 [3] | CC50 (PBMC) | pIC50 (Leishmania amazonensis [4])
1 | O=C(/C=C/c1ccc2c(c1)OCO2)OCC1CCN(Cc2ccc3c(c2)OCO3)CC1 | < 4.02 | 950 | <10.06 |  | 
2 | O=C(OCC1CCN(Cc2ccc3c(c2)OCO3)CC1)c1ccc([N+](=O)[O-])cc1 | 4.76 | 356 | 20.64 |  | 
3 | O=C(OCC1CCN(Cc2ccc3c(c2)OCO3)CC1)c1ccc(F)cc1 | 4.24 | 420 | 7.33 |  | 
4 | COc1ccc(C(=O)OCC2CCN(Cc3ccc4c(c3)OCO4)CC2)cc1OC | 4.36 | 1720 | 39.76 |  | 
5 | CCCCCCNC(=O)OCC1CCN(Cc2ccc3c(c2)OCO3)CC1 | 4.54 | 143 | 5 |  | 
6 | O=C(OCC1CCN(Cc2ccc3c(c2)OCO3)CC1)c1ccc(Cl)cc1 | < 3.99 |  |  | Non-toxic | 
7 | O=C(OCC1CCN(Cc2ccc3c(c2)OCO3)CC1)c1ccccc1 | 4.11 | 306 | 3.9 |  | 
8 | O=C(/C=C/C=C/c1ccc2c(c1)OCO2)N1CCCCC1 [PIPERINE] |  |  |  |  | 4.84
9 | O=C(OCC1CCN(Cc2ccc3c(c2)OCO3)CC1)c1ccc2c(c1)OCO2 | 4.55 | 362 | 12.88 |  | 
10 | CCNC(=O)OCC1CCN(Cc2ccc3c(c2)OCO3)CC1 | < 3.90 | 2430 | <19.48 |  | 
11 | O=C(OCC1CCN(Cc2ccc3c(c2)OCO3)CC1)c1ccc(Br)cc1 | 4.42 | 208 | 5.43 |  | 

Source: ChEMBL document CHEMBL3600330, “Synthesis and biological evaluation of novel piperidine-benzodioxole derivatives designed as potential leishmanicidal drug candidates” (Bioorg Med Chem Lett, 2015)
